Read-outs that look alike come from different tables or passages of the source.
Assays:
[1] = tested on: bacterial inoculum; conditions: for neutralizing 10 ppm of glutaraldehyde: two moles of nitrogen-containing compound to glutaraldehyde
Description: A series of different nitrogen-containing compounds were evaluated as materials to neutralize glutaraldehyde. For these experiments, 10:1 ratio of minimal media to n-C16 were prepared, mixed with 10 ppm of glutaraldehyde (G) and evaluated in 250 ml flasks.
Two moles of each of the nitrogen-containing compound to glutaraldehyde were added to the flasks. Then 10 μl of the bacterial inoculum was added to each flask.
Control samples were also run with the nitrogen-containing compound and without the glutaraldehyde. These control samples permitted an assessment of the toxicity of the nitrogen-containing compound.

[2] = tested on: Larval Sheepshead Minnow (Cyprinodon variegatus); conditions: in vivo, 96 h
Description: […]. EPA/600/4-90/027F Washington, D.C.) conducted at Pacific Eco-Risk Laboratories, Martinez, Calif.
LOEC is the Lowest Observable Effect Concentration and is defined as the minimum concentration where mortality is observed for the test species. […] LC-50, the concentration that will cause mortality of 50% of the organisms tested within 96 h, is a calculated value based on all observations.

[3] = tested on: bacterial inoculum; assay: Neutralization of biocides with MEA, microbial growth in minimal media / Fischer-Tropsch diesel fuel; assay type: cell-based
Description: Growth Media: A standard minimal media containing only inorganic nutrients required for bacterial growth was used. The medium used to supply inorganic micronutrients to the growing culture of alkane degrading organisms consists of 0.1 g/L MgSO4.7H2O, 0.5 g/L NaNO3, 0.02 mM FeSO4 and 0.63 g/L K2HPO4 and 0.19 g/L KH2PO4 to achieve a pH of 7 to 7.3.
Test Conditions: 90 ml of media and 10 ml of the product to be tested (n-C16) were added to 250 ml flasks. […] After inoculation, the flasks were placed on a shaker-table (135 rpm) at room temperature in contact with air and observed daily.
In all experiments, a 10:1 ratio of minimal media to Fischer-Tropsch diesel fuel were prepared and evaluated in 250 ml flasks.

[4] = tested on: bacteria; assay: Neutralization of glutaraldehyde with H2O2 and NH4Cl, microbial growth test; assay type: cell-based
Description: […]. In this experiment, minimal medium, containing 1, 10 or 100 ppm of glutaraldehyde, were mixed with a five times molar excess of H2O2 or NH4Cl. Hydrocarbonaceous product and bacteria were then added to the mixture. While microbial growth was observed after 5 days in control samples containing no glutaraldehyde, no growth was observed after 14 days in samples containing glutaraldehyde and H2O2 or NH4Cl. […].

[5] = 10 ppm glutaraldehyde with two moles of the nitrogen-containing compound to glutaraldehyde, time 0 days
[6] = 10 ppm glutaraldehyde with two moles of the nitrogen-containing compound to glutaraldehyde, time 1 days
[7] = 10 ppm glutaraldehyde with two moles of the nitrogen-containing compound to glutaraldehyde, time 2 days
[8] = 10 ppm glutaraldehyde with two moles of the nitrogen-containing compound to glutaraldehyde, time 6 days
[9] = 10 ppm glutaraldehyde with two moles of the nitrogen-containing compound to glutaraldehyde, time 7 days
[10] = 10 ppm glutaraldehyde with two moles of the nitrogen-containing compound to glutaraldehyde, time 9 days
[11] = 10 ppm glutaraldehyde with two moles of the nitrogen-containing compound to glutaraldehyde, time 13 days
[12] = 10 ppm glutaraldehyde with two moles of the nitrogen-containing compound to glutaraldehyde, time 20 days
[13] = control: nitrogen-containing compound without the glutaraldehyde, time 0 days
[14] = control: nitrogen-containing compound without the glutaraldehyde, time 1 days
[15] = control: nitrogen-containing compound without the glutaraldehyde, time 2 days
[16] = control: nitrogen-containing compound without the glutaraldehyde, time 6 days
[17] = control: nitrogen-containing compound without the glutaraldehyde, time 7 days
[18] = control: nitrogen-containing compound without the glutaraldehyde, time 9 days
[19] = control: nitrogen-containing compound without the glutaraldehyde, time 13 days
[20] = control: nitrogen-containing compound without the glutaraldehyde, time 20 days

For `OCCNCCO` [DEA, Diethanolamine], the “toxicity of the nitrogen-containing compound to microbial growth” value (shortened to “toxicity”) [1] was “not excessively toxic”, the “Growth / No Growth” value [1, 5] was “−” and the “Growth / No Growth” value [1, 6] was “+”. For the same molecule, the “Growth / No Growth” value [1, 7] was “+”, the “Growth / No Growth” value [1, 8] was “+” and the “Growth / No Growth” value [1, 9] was “+”. The “Growth / No Growth” value [1, 10] was “+”, the “Growth / No Growth” value [1, 11] was “+” and the “Growth / No Growth” value [1, 12] was “+”. The “Growth / No Growth” value [1, 13] was “−”, the “Growth / No Growth” value [1, 14] was “−” and the “Growth / No Growth” value [1, 15] was “−”. For the same molecule, the “Growth / No Growth” value [1, 16] was “+”, the “Growth / No Growth” value [1, 17] was “+” and the “Growth / No Growth” value [1, 18] was “+”. The “Growth / No Growth” value [1, 19] was “+”, the “Growth / No Growth” value [1, 20] was “−” and the “neutralizing 10 ppm of glutaraldehyde” value [1] was “effective”.

With `O=CCCCC=O` [Glutaraldehyde, glutaraldehyde] the LOEC [2] was 25 mg/L, the NOEC [2] was 13 mg/L and the “Growth / No Growth” value ([3]; 1 ppm G, time 0 days) was “−”. The “Growth / No Growth” value ([3]; 1 ppm G, time 1 days) was “−”, the “Growth / No Growth” value ([3]; 1 ppm G, time 2 days) was “−” and the “Growth / No Growth” value ([3]; 1 ppm G, time 3 days) was “−”. For the same molecule, the “Growth / No Growth” value ([3]; 1 ppm G, time 7 days) was “−”, the “Growth / No Growth” value ([3]; 1 ppm G, time 9 days) was “+” and the “Growth / No Growth” value ([3]; 1 ppm G, time 14 days) was “+”. For the same molecule, the “Growth / No Growth” value ([3]; 10 ppm G, time 0 days) was “−”, the “Growth / No Growth” value ([3]; 10 ppm G, time 1 days) was “−” and the “Growth / No Growth” value ([3]; 10 ppm G, time 2 days) was “−”. The “Growth / No Growth” value ([3]; 10 ppm G, time 3 days) was “−”, the “Growth / No Growth” value ([3]; 10 ppm G, time 7 days) was “−” and the “Growth / No Growth” value ([3]; 10 ppm G, time 9 days) was “−”. For the same molecule, the “Growth / No Growth” value ([3]; 10 ppm G, time 14 days) was “−”, the “Growth / No Growth” value ([3]; 100 ppm G, time 0 days) was “−” and the “Growth / No Growth” value ([3]; 100 ppm G, time 1 days) was “−”. The “Growth / No Growth” value ([3]; 100 ppm G, time 2 days) was “−”, the “Growth / No Growth” value ([3]; 100 ppm G, time 3 days) was “−” and the “Growth / No Growth” value ([3]; 100 ppm G, time 7 days) was “−”. The “Growth / No Growth” value ([3]; 100 ppm G, time 9 days) was “−” and the “Growth / No Growth” value ([3]; 100 ppm G, time 14 days) was “−”.

`OO` [H2O2] was tested, and the microbial growth [4] was “no growth”.

For `NCCO` [MEA, monoethanolamine], the LOEC [2] was 1700 mg/L, the NOEC [2] was 1000 mg/L and the “toxicity” value [1] was “not excessively toxic”. The “Growth / No Growth” value [1, 5] was “−”, the “Growth / No Growth” value [1, 6] was “−” and the “Growth / No Growth” value [1, 7] was “−”. For the same molecule, the “Growth / No Growth” value [1, 8] was “+”, the “Growth / No Growth” value [1, 9] was “+” and the “Growth / No Growth” value [1, 10] was “+”. The “Growth / No Growth” value [1, 11] was “+”, the “Growth / No Growth” value [1, 12] was “+” and the “Growth / No Growth” value [1, 13] was “−”. For the same molecule, the “Growth / No Growth” value [1, 14] was “−”, the “Growth / No Growth” value [1, 15] was “−” and the “Growth / No Growth” value [1, 16] was “−”. The “Growth / No Growth” value [1, 17] was “+”, the “Growth / No Growth” value [1, 18] was “+” and the “Growth / No Growth” value [1, 19] was “+”. For the same molecule, the “Growth / No Growth” value [1, 20] was “+” and the “neutralizing 10 ppm of glutaraldehyde” value [1] was “effective”.

In the case of `Cl.N` [NH4Cl], the microbial growth [4] is reported as “no growth”.

`Nc1ccccc1` [aniline, Aniline] was tested, and the “toxicity” value [1] was “excessively toxic”, the “Growth / No Growth” value [1, 5] was “−” and the “Growth / No Growth” value [1, 6] was “−”. The “Growth / No Growth” value [1, 7] was “−”, the “Growth / No Growth” value [1, 8] was “−” and the “Growth / No Growth” value [1, 9] was “−”. The “Growth / No Growth” value [1, 10] was “−”, the “Growth / No Growth” value [1, 11] was “−” and the “Growth / No Growth” value [1, 12] was “−”. The “Growth / No Growth” value [1, 13] was “−”, the “Growth / No Growth” value [1, 14] was “−” and the “Growth / No Growth” value [1, 15] was “−”. For the same molecule, the “Growth / No Growth” value [1, 16] was “−”, the “Growth / No Growth” value [1, 17] was “−” and the “Growth / No Growth” value [1, 18] was “−”. For the same molecule, the “Growth / No Growth” value [1, 19] was “−” and the “Growth / No Growth” value [1, 20] was “−”.

For `CCNCC` [diethylamine, Diethylamine], the “toxicity” value [1] was “not excessively toxic”, the “Growth / No Growth” value [1, 5] was “−” and the “Growth / No Growth” value [1, 6] was “−”. The “Growth / No Growth” value [1, 7] was “−”, the “Growth / No Growth” value [1, 8] was “+” and the “Growth / No Growth” value [1, 9] was “+”. The “Growth / No Growth” value [1, 10] was “+”, the “Growth / No Growth” value [1, 11] was “+” and the “Growth / No Growth” value [1, 12] was “+”. For the same molecule, the “Growth / No Growth” value [1, 13] was “−”, the “Growth / No Growth” value [1, 14] was “−” and the “Growth / No Growth” value [1, 15] was “−”. The “Growth / No Growth” value [1, 16] was “+”, the “Growth / No Growth” value [1, 17] was “+” and the “Growth / No Growth” value [1, 18] was “+”. The “Growth / No Growth” value [1, 19] was “+”, the “Growth / No Growth” value [1, 20] was “+” and the “neutralizing 10 ppm of glutaraldehyde” value [1] was “effective”.

Source: patent publication US6849664B2, “Process for disposing biocide-containing cooling water” (priority 2001, dated 2005)
